Common to all, as to assay: AK assay 384-well format, Prestwick library screening
One experiment deals with E. faecium. Format: cell-based, Enterococcus faecium. Particulars: 50 μM final drug concentration; for fold induction at 50 µM: Enterococcus faecium, 3 h.
The subject of experiment [1] is S. aureus strain USA300-0114. Format: cell-based, Staphylococcus aureus. As to conditions: 50 μM final drug concentration; for fold induction at 50 µM: Staphylococcus aureus, USA300, 3 h.
For a further experiment, the system named is K. pneumoniae. Type of experiment: cell-based, Klebsiella pneumoniae. Particulars: 50 μM final drug concentration; for fold induction at 50 µM: Klebsiella pneumoniae, 3 h.
Experiment [2] concerns A. baumannii strain 98-37-09. Type of experiment: cell-based, Acinetobacter baumannii. Particulars: 50 μM final drug concentration; for fold induction at 50 µM: Acinetobacter baumannii, 983709, 3 h.
In a further experiment the test system is P. aeruginosa. Type of experiment: cell-based, Pseudomonas aeruginosa. Particulars: 50 μM final drug concentration; for fold induction at 50 µM: Pseudomonas aeruginosa, 3 h.
A further experiment deals with E. cloacae. Format: cell-based, Enterobacter cloacae. As to conditions: 50 μM final drug concentration; for fold induction at 50 µM: Enterobacter cloacae, 3 h.
The test system of another experiment is E. coli. Format: cell-based, Escherichia coli. As to conditions: 50 μM final drug concentration; for fold induction at 50 µM: Escherichia coli, 3 h.
The mark [3] stands for this setting: cutoff for positive-scoring molecules 3-fold increase.
Setting [4] is: planktonic, cutoff for positive 3-fold increase, read-out: AK-based Prestwick Library Screening Results, E. faecium (fold increase in extracellular AK activity).
Setting [5] is: planktonic, cutoff for positive 3-fold increase, read-out: AK-based Prestwick Library Screening Results, S. aureus (fold increase in extracellular AK activity).
Where [6] appears, read: planktonic, cutoff for positive 3-fold increase, read-out: AK-based Prestwick Library Screening Results, K. pneumoniae (fold increase in extracellular AK activity).
The mark [7] stands for this setting: planktonic, cutoff for positive 3-fold increase, read-out: AK-based Prestwick Library Screening Results, A. baumannii (fold increase in extracellular AK activity).
[8] abbreviates: planktonic, cutoff for positive 3-fold increase, read-out: AK-based Prestwick Library Screening Results, P. aeruginosa (fold increase in extracellular AK activity).
[9] abbreviates: planktonic, cutoff for positive 3-fold increase, read-out: AK-based Prestwick Library Screening Results, E. cloacae (fold increase in extracellular AK activity).
[10] abbreviates: planktonic, cutoff for positive 3-fold increase, read-out: AK-based Prestwick Library Screening Results, E. coli (fold increase in extracellular AK activity).

Where a name gives a salt, the structure may show the parent alone. Read-outs that look alike come from different tables or passages of the source.

Turning to `CC[N+](CC)(CC)CCC(O)(c1ccccc1)C1CCCCC1.[Cl-]` (centres unmarked) [Tridihexethyl chloride], the “AK-based Prestwick Library Screening Results, E. faecium (fold increase in extracellular AK activity)” value with E. faecium (setting [3]) was 0.8. Besides, the “AK-based Prestwick Library Screening Results, S. aureus (fold increase in extracellular AK activity)” value in experiment [1] (setting [3]) worked out at 0.4. For the same molecule, the “AK-based Prestwick Library Screening Results, K. pneumoniae (fold increase in extracellular AK activity)” value in the experiment with K. pneumoniae (setting [3]) turned out to be 0.4. In addition, the “AK-based Prestwick Library Screening Results, A. baumannii (fold increase in extracellular AK activity)” value in experiment [2] (setting [3]) was found to be 0.4. The “AK-based Prestwick Library Screening Results, P. aeruginosa (fold increase in extracellular AK activity)” value in the experiment with P. aeruginosa (setting [3]) stood at 0.4. Moreover, the “AK-based Prestwick Library Screening Results, E. cloacae (fold increase in extracellular AK activity)” value with E. cloacae (setting [3]) was 0.3. The “AK-based Prestwick Library Screening Results, E. coli (fold increase in extracellular AK activity)” value with E. coli (setting [3]) is 0.4.

Regarding `c1ccc(C2CN3CCSC3=N2)cc1` (centres unmarked) [Tetramisole hydrochloride], the fold induction at 50 µM in the experiment on E. faecium (setting [4]) came to 1; in experiment [1] (setting [5]), 1.1; in the experiment on K. pneumoniae (setting [6]), 1.1; in experiment [2] (setting [7]) it was 1.4; with P. aeruginosa (setting [8]), 1.2; in the experiment with E. cloacae (setting [9]), 1.4. Further, the fold induction at 50 µM with E. coli (setting [10]) is 1.3.

On to `C[C@H]1[C@H](C)CC[C@]2(C(=O)O)CC[C@]3(C)C(=CC[C@@H]4[C@@]5(C)CC[C@H](O)C(C)(C)[C@@H]5CC[C@]43C)[C@H]12` [Ursolic acid], for which the fold induction at 50 µM with E. faecium (384-well format, cutoff for positive-scoring molecules 3-fold increase, read-out: AK-based Prestwick Library Screening Results, E. faecium (increase in extracellular AK activity)) is 2.8; in experiment [1] (384-well format, cutoff for positive-scoring molecules 3-fold increase, read-out: AK-based Prestwick Library Screening Results, S. aureus (increase in extracellular AK activity)), 0.1; with K. pneumoniae (384-well format, cutoff for positive-scoring molecules 3-fold increase, read-out: AK-based Prestwick Library Screening Results, K. pneumoniae (increase in extracellular AK activity)), 0.4; in experiment [2] (384-well format, cutoff for positive-scoring molecules 3-fold increase, read-out: AK-based Prestwick Library Screening Results, A. baumannii (increase in extracellular AK activity)), 0.5; with P. aeruginosa (384-well format, cutoff for positive-scoring molecules 3-fold increase, read-out: AK-based Prestwick Library Screening Results, P. aeruginosa (increase in extracellular AK activity)), 0.4; in the experiment with E. cloacae (384-well format, cutoff for positive-scoring molecules 3-fold increase, read-out: AK-based Prestwick Library Screening Results, E. cloacae (increase in extracellular AK activity)), 0.5. Moreover, the fold induction at 50 µM with E. coli (384-well format, cutoff for positive-scoring molecules 3-fold increase, read-out: AK-based Prestwick Library Screening Results, E. coli (increase in extracellular AK activity)) worked out at 0.4.

As for `CC(=O)c1ccc2c(c1)N(CCCN1CCC(CCO)CC1)c1ccccc1S2` [Piperacetazine], the fold induction at 50 µM was determined as 0.9 in the experiment on E. faecium (cutoff for positive-scoring molecules 3-fold increase, read-out: AK-based Prestwick Library Screening Results, E. faecium (fold increase in extracellular AK activity)); 0.5 in experiment [1] (cutoff for positive-scoring molecules 3-fold increase, read-out: AK-based Prestwick Library Screening Results, S. aureus (fold increase in extracellular AK activity)); 0.5 in the experiment on K. pneumoniae (cutoff for positive-scoring molecules 3-fold increase, read-out: AK-based Prestwick Library Screening Results, K. pneumoniae (fold increase in extracellular AK activity)); 0.6 in experiment [2] (cutoff for positive-scoring molecules 3-fold increase, read-out: AK-based Prestwick Library Screening Results, A. baumannii (fold increase in extracellular AK activity)); 0.5 in the experiment on P. aeruginosa (cutoff for positive-scoring molecules 3-fold increase, read-out: AK-based Prestwick Library Screening Results, P. aeruginosa (fold increase in extracellular AK activity)); 0.4 in the experiment on E. cloacae (cutoff for positive-scoring molecules 3-fold increase, read-out: AK-based Prestwick Library Screening Results, E. cloacae (fold increase in extracellular AK activity)). For the same molecule, in the experiment on E. coli (cutoff for positive-scoring molecules 3-fold increase, read-out: AK-based Prestwick Library Screening Results, E. coli (fold increase in extracellular AK activity)), the fold induction at 50 µM was 0.5.

Consider `COc1cc(Cc2cnc(N)nc2N)cc(OC)c1OC` [Trimethoprim], for which the fold induction at 50 µM was found to be 1.1 with E. faecium (planktonic E. faecium, 384-well, cutoff for positive-scoring molecules 3-fold increase, read-out: AK-based Prestwick Library Screening Results: E. faecium (increase in extracellular AK activity)); 1 in experiment [1] (planktonic S. aureus, 384-well, cutoff for positive-scoring molecules 3-fold increase, read-out: AK-based Prestwick Library Screening Results: S. aureus (increase in extracellular AK activity)); 0.8 in the experiment on K. pneumoniae (planktonic K. pneumoniae, 384-well, cutoff for positive-scoring molecules 3-fold increase, read-out: AK-based Prestwick Library Screening Results: K. pneumoniae (increase in extracellular AK activity)); 3.1 in experiment [2] (planktonic A. baumannii, 384-well, cutoff for positive-scoring molecules 3-fold increase, read-out: AK-based Prestwick Library Screening Results: A. baumannii (increase in extracellular AK activity)); 1.1 with P. aeruginosa (planktonic P. aeruginosa, 384-well, cutoff for positive-scoring molecules 3-fold increase, read-out: AK-based Prestwick Library Screening Results: P. aeruginosa (increase in extracellular AK activity)); 7.2 in the experiment with E. cloacae (planktonic E. cloacae, 384-well, cutoff for positive-scoring molecules 3-fold increase, read-out: AK-based Prestwick Library Screening Results: E. cloacae (increase in extracellular AK activity)). Moreover, the fold induction at 50 µM in the experiment with E. coli (planktonic E. coli, 384-well, cutoff for positive-scoring molecules 3-fold increase, read-out: AK-based Prestwick Library Screening Results: E. coli (increase in extracellular AK activity)) stood at 1.2.

With `CO[C@@H]1[C@@H](OC(N)=O)[C@@H](O)[C@H](Oc2ccc3c(O)c(NC(=O)c4ccc(O)c(CC=C(C)C)c4)c(=O)oc3c2C)OC1(C)C` [Novobiocin sodium salt], the fold induction at 50 µM with E. faecium (planktonic, cutoff for positive-scoring molecules 3-fold increase, read-out: AK-based Prestwick Library Screening Results, E. faecium (fold increase in extracellular AK activity)) came out at 1.5; in experiment [1] (planktonic, cutoff for positive-scoring molecules 3-fold increase, read-out: AK-based Prestwick Library Screening Results, S. aureus (fold increase in extracellular AK activity)), 4.5; in the experiment with K. pneumoniae (planktonic, cutoff for positive-scoring molecules 3-fold increase, read-out: AK-based Prestwick Library Screening Results, K. pneumoniae (fold increase in extracellular AK activity)) it was 0.7; in experiment [2] (planktonic, cutoff for positive-scoring molecules 3-fold increase, read-out: AK-based Prestwick Library Screening Results, A. baumannii (fold increase in extracellular AK activity)) it was 1.1; in the experiment with P. aeruginosa (planktonic, cutoff for positive-scoring molecules 3-fold increase, read-out: AK-based Prestwick Library Screening Results, P. aeruginosa (fold increase in extracellular AK activity)), 1; in the experiment with E. cloacae (planktonic, cutoff for positive-scoring molecules 3-fold increase, read-out: AK-based Prestwick Library Screening Results, E. cloacae (fold increase in extracellular AK activity)), 1.6. Moreover, the fold induction at 50 µM with E. coli (planktonic, cutoff for positive-scoring molecules 3-fold increase, read-out: AK-based Prestwick Library Screening Results, E. coli (fold increase in extracellular AK activity)) came out at 3.2.

As to `CC(=O)O[C@H]1C[C@@]2(C)[C@@H](C[C@@H](O)[C@H]3[C@@]4(C)CC[C@@H](O)[C@@H](C)[C@@H]4CC[C@@]32C)/C1=C(\CCC=C(C)C)C(=O)O` [Fusidic acid sodium salt], the fold induction at 50 µM with E. faecium (setting [4]) turned out to be 1.1; in experiment [1] (setting [5]), 4.2; in the experiment on K. pneumoniae (setting [6]), 1.1; in experiment [2] (setting [7]) it was 1.3; with P. aeruginosa (setting [8]), 1.1; with E. cloacae (setting [9]) it was 1.4. The fold induction at 50 µM in the experiment with E. coli (setting [10]) was 1.1.

As to `NC(N)=NOCC[C@H](N)C(=O)O.O.O=S(=O)(O)O` [Canavanine sulfate monohydrate (L,+)], the “AK-based Prestwick Library Screening Results, E. faecium (fold increase in extracellular AK activity)” value in the experiment with E. faecium (planktonic, […]) is 1.1. In addition, the “AK-based Prestwick Library Screening Results, S. aureus (fold increase in extracellular AK activity)” value in experiment [1] (planktonic, […]) was found to be 1.6. Also, in the experiment with K. pneumoniae (planktonic, […]), the “AK-based Prestwick Library Screening Results, K. pneumoniae (fold increase in extracellular AK activity)” value turned out to be 0.9. The “AK-based Prestwick Library Screening Results, A. baumannii (fold increase in extracellular AK activity)” value in experiment [2] (planktonic, […]) was determined as 1.1. Also, the “AK-based Prestwick Library Screening Results, P. aeruginosa (fold increase in extracellular AK activity)” value in the experiment with P. aeruginosa (planktonic, […]) is 1.1. Further, the “AK-based Prestwick Library Screening Results, E. cloacae (fold increase in extracellular AK activity)” value in the experiment on E. cloacae (planktonic, […]) is listed as 1.4. Further, the “AK-based Prestwick Library Screening Results, E. coli (fold increase in extracellular AK activity)” value in the experiment on E. coli (planktonic, […]) was 1.2.

(Values after patent publication US10004701B2, “Methods and compositions for treating infection” (UNIVERSITY OF ROCHESTER, priority 2012, dated 2018).)
